Experimental data: patent EP3002286B1, “PREPARATION METHOD FOR POLYMORPHIC 6-(4-CHLOROPHENOXY)-TETRAZOLO[5,1-A]PHTHALAZINE AND USE THEREOF” (Jilin Yinglian Shangde Science and Technology Development …, priority 2014, dated 2015)

Legend:
[1] = Stability of the crystalline forms (suspension balance), product form decided by XRPD; type: physicochemical; details: suspension time 2 days
Protocol: 20mg of crystalline form A and 20mg of crystalline form B were mixed, then placed into 1ml of methanol as a solvent, followed by mixing the resultant suspension with a magnetic stirrer at a rotational speed of 100 rpm for two days. And then, the suspension was filtered, and the product obtained was washed with a small amount of methanol, followed by drying at room temperature to give a solid, which was analyzed with XRPD to decide the crystalline form of the product. Other sample mixtures were also shown in Table 1 (see Table 1 for results). Table 1 Comparison of the stability of the crystalline forms (suspension balance)

[2] = Comparison of solubility of the crystalline forms in water (UV absorbance of saturated solution); type: physicochemical; details: for Absorbance (Abs): saturated water solution (10mg in 1ml of water, stirred 1 hour, filtered), diluted 10 times, ultraviolet spectrophotometer; for Solubility relationship with respect to Form A: water, concentration ratio from absorbance according to the Lambert-Beer law
Protocol: 10mg of 6-(4-chlorophenoxy)-tetrazolo[5,1-a]phthalazine in each of the four crystalline forms was dissolved into 1ml of water, respectively, and the mixture was stirred for 1 hour so as to reach a solubility equilibrium with a supersaturated state being kept, and then the resultant mixture was filtered to give a clear and saturated water solution for each of the crystalline forms, respectively. Then, each solution was diluted 10 times, and absorbance thereof was measured using a ultraviolet spectrophotometer, and then the concentration ratio of 6-(4-chlorophenoxy)-tetrazolo[5,1-a]phthalazine in each solution could be determined according to the Lambert-Beer law, so as to obtain the solubility relationship among the four crystalline forms (see Table 2 for results). Table 2 Comparison of solubility of the crystalline forms

[3] = test system: maximal electroshock seizure; test: Maximal electroshock (MES) test; type: in vivo; details: mice; for ED50, MES / ED50: p.o (intragastrically, i.g.), effect against electroshock seizure; for ED50: Mus musculus, po
Protocol: Maximal electroshock (MES) test is an ideal animal model for evaluating a compound having a potential anti-epileptic effect, and if the compound can be applied against the maximal electroshock seizure, then it is likely to be further developed as a drug for treatment of grand mal clinically. Each of the four crystalline forms of this invention was intragastrically (i.g.) administered to mice respectively, each median effective dose (ED50) for the effect against electroshock seizure was measured, and each anti-convulsion effect was assessed. Table 3 Comparison of the pharmacological effect of the anti-convulsion of the crystalline forms (mg/kg, p.o)

Compound	Absorbance (Abs) [2] [Abs]	Solubility relationship with respect to Form A [2] [times]	ED50, MES [3] [mg/kg]	further results
Clc1ccc(Oc2nn3nnnc3c3ccccc23)cc1 [Form A + Form D, 6-(4-chlorophenoxy)-tetrazolo[5,1-a]phthalazine]	–	–	–	Crystalline form of the product ([1]; solvent for suspension Nitromethane + n-hexane): Form A
NC(=O)N1c2ccccc2C=Cc2ccccc21 [Carbamazepine, reference compound]	–	–	–	ED50 [3]: 15.4 mg/kg
Clc1ccc(Oc2nn3nnnc3c3ccccc23)cc1 [Form A + Form C, 6-(4-chlorophenoxy)-tetrazolo[5,1-a]phthalazine]	–	–	–	Crystalline form of the product ([1]; solvent for suspension Methyl ethyl ketone): Form A
Clc1ccc(Oc2nn3nnnc3c3ccccc23)cc1 [Crystalline form A, 6-(4-chlorophenoxy)-tetrazolo[5,1-a]phthalazine]	0.0407	–	–	ED50 [3]: 15.6 mg/kg
Clc1ccc(Oc2nn3nnnc3c3ccccc23)cc1 [Form A + Form B, 6-(4-chlorophenoxy)-tetrazolo[5,1-a]phthalazine]	–	–	–	Crystalline form of the product ([1]; solvent for suspension Methanol): Form A

Now from value to compound, other results behind:

Absorbance (Abs) [2] [Abs]	Solubility relationship with respect to Form A [2] [times]	Compound	ED50, MES [3] [mg/kg]	further results
0.134	3.3	Clc1ccc(Oc2nn3nnnc3c3ccccc23)cc1 [Crystalline form D, 6-(4-chlorophenoxy)-tetrazolo[5,1-a]phthalazine]	12.7	–
0.326	8.0	Clc1ccc(Oc2nn3nnnc3c3ccccc23)cc1 [Crystalline form C, 6-(4-chlorophenoxy)-tetrazolo[5,1-a]phthalazine]	8.5	water solubility (in words) ([2]; comparison among the crystalline forms): best water solubility; anti-convulsion effect (in words) ([3]; comparison among the crystalline forms, intragastrically administered): strongest anti-convulsion effect
0.279	6.8	Clc1ccc(Oc2nn3nnnc3c3ccccc23)cc1 [Crystalline form B, 6-(4-chlorophenoxy)-tetrazolo[5,1-a]phthalazine]	9.2	–
